In patent US9452980B2, “Substituted benzamides” (Hoffmann-La Roche Inc., priority 2009, dated 2016):
Where a name gives a salt, the structure may show the parent alone. Read-outs that look alike come from different tables or passages of the source.

Assays:
[1] = molecular target: mouse TAAR1 (Mus musculus (Mouse), UniProt Q923Y8); assay: Radioligand binding assay on mouse TAAR1; conditions: read-out: Ki (μM) mouse
Description: (§1) For the construction of expression plasmids the coding sequences of human, rat and mouse TAAR1 were amplified from genomic DNA essentially as described by Lindemann et al.. The Expand High Fidelity PCR System (Roche Diagnostics) was used with 1.5 mM Mg^2+ and purified PCR products were cloned into pCR2.1-TOPO cloning vector (Invitrogen) following the instructions of the manufacturer. PCR products were subcloned into the pIRESneo2 vector (BD Clontech, Palo Alto, Calif.), and expression vectors were sequence verified before introduction in cell lines.
(§2) HEK293 cells (ATCC #CRL-1573) were cultured essentially as described by Lindemann et al. (2005). For the generation of stably transfected cell lines HEK293 cells were transfected with the pIRESneo2 expression plasmids containing the TAAR coding sequences (described above) with Lipofectamine 2000 (Invitrogen) according to the instructions of the manufacturer, and 24 hrs post transfection the culture medium was supplemented with 1 mg/ml G418 (Sigma, Buchs, Switzerland). After a culture period of about 10 d clones were isolated, expanded and tested for responsiveness to trace amines (all compounds purchased from Sigma) with the cAMP Biotrak Enzyme immunoassay (EIA) System (Amersham) following the non-acetylation EIA procedure provided by the manufacturer.
Radioligand Binding Assay on Mouse TAAR1
(§3) Membrane Preparation and Radioligand Binding.
(§4) HEK-293 cells stably expressing mouse TAAR1 were maintained at 37° C. and 5% CO2 in DMEM high glucose medium, containing fetal calf serum (10%, heat inactivated for 30 min at 56° C.), penicillin/streptomycin (1%), and 375 μg/ml geneticin (Gibco). Cells were released from culture flasks using trypsin/EDTA, harvested, washed twice with ice-cold PBS (without Ca^2+ and Mg^2+), pelleted at 1,000 rpm for 5 min at 4° C., frozen and stored at −80° C. Frozen pellets were suspended in 20 ml HEPES-NaOH (20 mM, pH 7.4) containing 10 mM EDTA and homogenized with a Polytron (PT 6000, Kinematica) at 14,000 rpm for 20 s. The homogenate was centrifuged at 48,000×g for 30 min at 4° C. Subsequently, the supernatant was removed and discarded, and the pellet resuspended in 20 ml HEPES-NaOH (20 mM, pH 7.4) containing 0.1 mM EDTA using the Polytron (20 s at 14,000 rpm). This procedure was repeated and the final pellet resuspended in HEPES-NaOH containing 0.1 mM EDTA and homogenized using the Polytron. Typically, aliquots of 2 ml membrane portions were stored at −80° C. With each new membrane batch the dissociation constant (Kd) was determined via a saturation curve. […] Nonspecific binding was defined as the amount of ^3[H]—(S)-4-[(ethyl-phenyl-amino)-methyl]-4,5-dihydro-oxazol-2-ylamine bound in the presence of 10 μM unlabeled ligand. All compounds were tested at a broad range of concentrations (10 pM to 10 μM) in duplicates. […] The 96 deep well plates were incubated for 1 hr at 4° C. Incubations were terminated by rapid filtration through Unifilter-96 plates (Packard Instrument Company) and glass filters GF/C (Perkin Elmer) presoaked for 1 hr in polyethylenimine (0.3%) and washed 3 times with 1 ml of cold binding buffer. After addition of 45 μl of Microscint 40 (PerkinElmer) the Unifilter-96 plate was sealed and after 1 hr the ratioactivity counted using a TopCount Microplate Scintillation Counter (Packard Instrument Company).

[2] = molecular target: rat TAAR1 (Rattus norvegicus (Rat), UniProt Q923Y9); assay: Radioligand binding assay on rat TAAR1; conditions: read-out: Ki (μM) rat
Chain of rat TAAR1 (Q923Y9 whole entry): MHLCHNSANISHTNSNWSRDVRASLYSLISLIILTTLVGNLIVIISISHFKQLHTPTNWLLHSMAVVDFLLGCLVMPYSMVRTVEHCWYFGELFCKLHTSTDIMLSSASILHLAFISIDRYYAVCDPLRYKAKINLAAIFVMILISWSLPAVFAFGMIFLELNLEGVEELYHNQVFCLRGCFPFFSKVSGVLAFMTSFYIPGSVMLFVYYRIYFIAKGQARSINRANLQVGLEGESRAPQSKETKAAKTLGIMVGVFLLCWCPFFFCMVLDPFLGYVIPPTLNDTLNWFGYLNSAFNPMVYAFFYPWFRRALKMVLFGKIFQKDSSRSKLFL
Description: as §1, §2
Radioligand Binding Assay on Rat TAAR1
as §3
as §4, with “rat” for “mouse”

[3] = mouse TAAR1, HEK-293 membranes, first value of cell mouse/rat
[4] = rat TAAR1, HEK-293 membranes, second value of cell mouse/rat

Chain of mouse TAAR1 (Q923Y8 whole entry): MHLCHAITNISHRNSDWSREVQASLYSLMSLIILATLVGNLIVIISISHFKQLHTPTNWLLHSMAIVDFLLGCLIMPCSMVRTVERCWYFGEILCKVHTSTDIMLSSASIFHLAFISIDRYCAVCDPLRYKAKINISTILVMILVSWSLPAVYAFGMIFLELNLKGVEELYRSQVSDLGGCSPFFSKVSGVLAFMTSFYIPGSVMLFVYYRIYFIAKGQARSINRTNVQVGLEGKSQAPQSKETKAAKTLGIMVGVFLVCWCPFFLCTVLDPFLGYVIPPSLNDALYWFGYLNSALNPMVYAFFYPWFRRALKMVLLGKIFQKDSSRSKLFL

| Ki [1, 3] [µM] | Ki [2, 4] [µM] | Compound | other results |
| --- | --- | --- | --- |
| 0.0013 | 0.0022 | O=C(Nc1ccc(C2CCNC2)cc1)Nc1ccc(Cl)cn1 (racemic) [Example 44, (RS)-1-(5-Chloro-pyridin-2-yl)-3-(4-pyrrolidin-3-yl-phenyl)-urea hydrochloride] | – |
| 0.0146 | 0.0009 | O=C(Nc1ccc([C@@H]2CCCNC2)cc1)OCc1ccc(Cl)cc1 [Example 240, (S)-4-chlorobenzyl 4-(piperidin-3-yl)phenylcarbamate hydrochloride] | – |
| 0.0608 | 0.0014 | O=C(Nc1ccc(Cl)cc1)Nc1ccc(CCC2CCNC2)cc1 (racemic) [Example 116, (RS)-1-(4-Chloro-phenyl)-3-[4-(2-pyrrolidin-3-yl-ethyl)-phenyl]-urea hydrochloride] | – |
| 0.146 | 0.0044 | O=C(Nc1ccc(C2CNCCO2)cc1)c1ccc(N2CCCC2)nc1 (racemic) [Example 279, (RS)—N-(4-(Morpholin-2-yl)phenyl)-6-(pyrrolidin-1-yl)nicotinamide hydrochloride] | – |
| 0.0074 | 0.0014 | Cc1ccc(NC(=O)Nc2ccc(C3CNCCO3)cc2)cc1 (racemic) [Example 293, (RS)-1-(4-(Morpholin-2-yl)phenyl)-3-p-tolylurea hydrochloride] | – |
| 0.0227 | 0.0124 | O=C(Nc1ccc(C2CCNC2)cc1)Nc1cccc2cccnc12 (racemic) [Example 81, (RS)-1-(4-Pyrrolidin-3-yl-phenyl)-3-quinolin-8-yl-urea] | – |
| 0.002 | 0.0263 | O=C(CCc1ccc(Cl)cc1)Nc1ccc(C2CCCNC2)cc1 (racemic) [Example 101, (RS)-3-(4-Chloro-phenyl)-N-(4-piperidin-3-yl-phenyl)-propionamide hydrochloride] | – |
| 0.0008 | 0.0014 | O=C(Nc1ccc(C2CNCCO2)cc1)c1csc(-c2ccccc2)n1 (racemic) [Example 233, (RS)—N-(4-(Morpholin-2-yl)phenyl)-2-phenylthiazole-4-carboxamide hydrochloride] | – |
| 0.824 | 0.0218 | O=C(Nc1ccc(CCC2CCCCN2)cc1)c1ccc(Cl)nc1 (racemic) [Example 173, (RS)-6-Chloro-N-(4-(2-(piperidin-2-yl)ethyl)phenyl)nicotinamide hydrochloride] | – |
| – | – | CSc1ccc(C(=O)Nc2ccc([C@@H]3CNCCO3)cc2)cc1 [Example 266, (R)-4-(Methylthio)-N-(4-(morpholin-2-yl)phenyl)benzamide hydrochloride] | Ki ([1]; mouse TAAR1, HEK-293 membranes, first value of cell mouse/rat, hydrochloride): 0.0163 µM; Ki ([2]; hydrochloride): 0.0012 µM |
| 1.89 | 0.0062 | O=C(NCc1ccc([C@@H]2CNCCO2)cc1)c1ccc(Cl)cc1 [Example 314, (R)-4-Chloro-N-(4-(morpholin-2-yl)benzyl)benzamide hydrochloride] | – |
| 0.0151 | 0.0012 | CCSc1cccc(C(=O)Nc2ccc([C@@H]3CCCNC3)cc2)c1 [Example 246, (S)-3-(Ethylthio)-N-(4-(piperidin-3-yl)phenyl)benzamide] | – |
| 0.005 | 0.0043 | O=C(Nc1ccc([C@H]2CCNC2)cc1)c1ccc(OCC(F)(F)F)nc1 [Example 204, (R)—N-(4-(pyrrolidin-3-yl)phenyl)-6-(2,2,2-trifluoroethoxy)nicotinamide hydrochloride] | – |

| Compound | Ki [1, 3] [µM] | Ki [2, 4] [µM] | other results |
| --- | --- | --- | --- |
| O=C(Nc1ccc(CCC2CCCCN2)cc1)c1ccc(Cl)c(Cl)c1 (racemic) [Example 176, (RS)-3,4-Dichloro-N-(4-(2-(piperidin-2-yl)ethyl)phenyl)benzamide hydrochloride] | 0.0253 | 0.001 | – |
| O=C(Nc1ccc(CC2CCCN2)cc1)c1ccc(Cl)cc1 (racemic) [Example 107, (RS)-4-Chloro-N-(4-pyrrolidin-2-ylmethyl-phenyl)-benzamide hydrochloride] | 0.0027 | 0.0445 | – |
| O=C(Nc1ccc([C@H]2CNCCO2)cc1)Nc1ccc(C(F)(F)F)cc1 [Example 312, (S)-1-(4-(Morpholin-2-yl)phenyl)-3-(4-(trifluoromethyl)phenyl)urea hydrochloride] | 0.0007 | – | Ki [2]: 0.0011 µM |
| CSc1ccc(C(=O)Nc2ccc(C3CNCCO3)cc2)cc1 (stereo in doubt) [Example 267, (S)-4-(Methylthio)-N-(4-(morpholin-2-yl)phenyl)benzamide hydrochloride] | 0.0476 | – | Ki [2]: 0.0011 µM |
| O=C(Nc1ccc([C@H]2CCCNC2)cc1)c1cnc(Cl)cn1 [Example 239, 5-Chloro-pyrazine-2-carboxylic acid ((R)-4-piperidin-3-yl-phenyl)-amide hydrochloride] | – | 0.0085 | Ki [1]: 0.0396 µM |
| COC(=O)c1ccc(Oc2ccc(C(=O)Nc3ccc(C4CNCCO4)cc3)cc2)cc1Cl (racemic) [Example 213, (RS)-Methyl 2-chloro-4-(4-(4-(morpholin-2-yl)phenylcarbamoyl)phenoxy)benzoate hydrochloride] | 0.0012 | 0.001 | – |
| N#Cc1ccc(C(=O)Nc2ccc(C3CCNC3)cc2)cc1 (racemic) [Example 55, (RS)-4-Cyano-N-(4-pyrrolidin-3-yl-phenyl)-benzamide hydrochloride] | – | 0.0745 | Ki [1]: 0.0048 µM |
| O=C(Nc1ccc([C@@H]2CNCCO2)cc1)c1ccc(Cl)cc1F [Example 229, (R)-4-Chloro-2-fluoro-N-(4-(morpholin-2-yl)phenyl)benzamide hydrochloride] | – | 0.0019 | Ki [1]: 0.0218 µM |
| CCOc1ccc(C(=O)Nc2ccc(C3CNCCO3)cc2)cc1 (racemic) [Example 197, (RS)-4-Ethoxy-N-(4-(morpholin-2-yl)phenyl)benzamide hydrochloride] | 0.0177 | – | Ki [2]: 0.0016 µM |
| O=C(Nc1ccc([C@@H]2CNC[C@H]2O)cc1)c1ccc(Cl)cc1 (racemic) [Example 63, 4-Chloro-N-[4-((3RS,4SR)-4-hydroxy-pyrrolidin-3-yl)-phenyl]-benzamide hydrochloride] | 0.0837 | 0.174 | – |
| O=C(Nc1ccc([C@@H]2CCCNC2)cc1)c1cccc(Cl)c1 [Example 153, (S)-3-Chloro-N-(4-(piperidin-3-yl)phenyl)benzamide hydrochloride] | – | 0.0005 | Ki [1]: 0.0715 µM |
| CCCc1ccc(C(=O)Nc2ccc([C@@H]3CCCNC3)cc2)cn1 [Example 289, (S)—N-(4-(Piperidin-3-yl)phenyl)-6-propylnicotinamide] | 0.143 | – | Ki [2]: 0.0027 µM |
